Experimental data taken from patent US20060222617A1, “Water-soluble cosmetic composition and method for manufacturing the same” (Taiyen Biotech. Co. Ltd., priority 2005, published 2006).
Where two headings read alike, the source gives them in different places.

Protocol: A lyophilizated product solubility test and a stability test are conducted to compare the cosmetic composition of the present invention with the start materials of the cosmetic composition.

- Solubility (after processing the cosmetic composition (lyophilized with water-soluble collagen, rehydrated with the amount of water removed)): 2 wt %
- Solubility (start materials of the cosmetic composition (without processing)): 0.5 wt %
SMILES: O=C1O[C@H]([C@@H](O)CO)C([O-])=C1OP(=O)([O-])[O-].O=C1O[C@H]([C@@H](O)CO)C([O-])=C1OP(=O)([O-])[O-].[Mg+2].[Mg+2].[Mg+2] [Magnesium ascorbyl phosphate, magnesium ascorbyl phosphate]
